Results from US9120820B2, “Fluorescent molecular probes for use in assays that measure test compound competitive binding with SAM-utilizing proteins” (CAYMAN CHEMICAL COMPANY, INCORPORATED, priority 2011, dated 2015).

How the values were obtained:
[1] = biological target: KMT5b (Homo sapiens, UniProt Q4FZB7); experiment: Fluorescence polarization saturation binding of fluorescent probe to KMT5b; conditions: saturation-binding format, mean ± SEM, read-out: Sinefungin Probe 1A Affinity
Description: (§1) Sinefungin Probe 1A was tested for the ability to bind to 16 proteins, including several non-methlytransferase protein controls (Table 2). This probe binds to 4 methyltransferases (SET7/9, G9a, GLP, MLL) with Kd values <2 μM.

[2] = biological target: T1, GLP (Homo sapiens, UniProt Q9H9B1); experiment: Fluorescence polarization saturation binding of fluorescent probe to GLP; conditions: saturation-binding format, mean ± SEM, read-out: Sinefungin Probe 1A Affinity
T1 sequence (Q9H9B1 1-1298): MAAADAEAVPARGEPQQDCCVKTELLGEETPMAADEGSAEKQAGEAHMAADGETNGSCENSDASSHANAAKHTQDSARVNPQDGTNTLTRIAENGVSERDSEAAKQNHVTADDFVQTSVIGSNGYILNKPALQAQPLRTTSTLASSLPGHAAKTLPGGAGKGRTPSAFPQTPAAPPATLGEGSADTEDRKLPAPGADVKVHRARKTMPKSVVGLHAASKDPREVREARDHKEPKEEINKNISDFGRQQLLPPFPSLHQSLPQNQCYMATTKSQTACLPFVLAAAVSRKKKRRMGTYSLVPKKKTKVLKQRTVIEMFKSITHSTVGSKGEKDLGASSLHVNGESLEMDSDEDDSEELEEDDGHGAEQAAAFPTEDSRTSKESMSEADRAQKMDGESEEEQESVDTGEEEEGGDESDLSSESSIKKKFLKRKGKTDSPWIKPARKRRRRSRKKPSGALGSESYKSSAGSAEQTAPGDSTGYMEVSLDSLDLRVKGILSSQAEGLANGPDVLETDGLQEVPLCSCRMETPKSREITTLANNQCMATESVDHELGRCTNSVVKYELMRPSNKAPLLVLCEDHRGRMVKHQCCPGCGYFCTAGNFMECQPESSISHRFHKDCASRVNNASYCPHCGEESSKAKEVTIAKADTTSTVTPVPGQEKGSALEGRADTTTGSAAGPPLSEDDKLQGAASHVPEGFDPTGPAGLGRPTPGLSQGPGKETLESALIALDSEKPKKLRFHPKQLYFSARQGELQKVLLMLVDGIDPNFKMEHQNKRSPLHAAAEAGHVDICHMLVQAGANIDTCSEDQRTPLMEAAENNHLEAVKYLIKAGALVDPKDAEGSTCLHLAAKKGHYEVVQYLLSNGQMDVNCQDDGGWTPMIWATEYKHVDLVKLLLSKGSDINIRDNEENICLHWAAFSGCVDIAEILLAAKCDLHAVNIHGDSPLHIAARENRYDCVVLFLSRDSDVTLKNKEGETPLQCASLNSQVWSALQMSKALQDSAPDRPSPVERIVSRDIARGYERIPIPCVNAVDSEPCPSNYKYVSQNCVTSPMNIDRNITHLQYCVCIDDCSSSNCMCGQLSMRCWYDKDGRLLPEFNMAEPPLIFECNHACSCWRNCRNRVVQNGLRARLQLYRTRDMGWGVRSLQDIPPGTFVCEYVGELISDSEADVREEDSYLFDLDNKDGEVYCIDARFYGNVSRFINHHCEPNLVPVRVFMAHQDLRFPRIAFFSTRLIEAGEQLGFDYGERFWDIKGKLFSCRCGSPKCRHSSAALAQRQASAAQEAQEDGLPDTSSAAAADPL
Description: as §1

[3] = biological target: Trypsin; experiment: Fluorescence polarization saturation binding of fluorescent probe to Trypsin (control protein); conditions: saturation-binding format, read-out: Sinefungin Probe 1A Affinity
Description: as §1

Chain of KMT5b (Q4FZB7 whole entry, species assumed): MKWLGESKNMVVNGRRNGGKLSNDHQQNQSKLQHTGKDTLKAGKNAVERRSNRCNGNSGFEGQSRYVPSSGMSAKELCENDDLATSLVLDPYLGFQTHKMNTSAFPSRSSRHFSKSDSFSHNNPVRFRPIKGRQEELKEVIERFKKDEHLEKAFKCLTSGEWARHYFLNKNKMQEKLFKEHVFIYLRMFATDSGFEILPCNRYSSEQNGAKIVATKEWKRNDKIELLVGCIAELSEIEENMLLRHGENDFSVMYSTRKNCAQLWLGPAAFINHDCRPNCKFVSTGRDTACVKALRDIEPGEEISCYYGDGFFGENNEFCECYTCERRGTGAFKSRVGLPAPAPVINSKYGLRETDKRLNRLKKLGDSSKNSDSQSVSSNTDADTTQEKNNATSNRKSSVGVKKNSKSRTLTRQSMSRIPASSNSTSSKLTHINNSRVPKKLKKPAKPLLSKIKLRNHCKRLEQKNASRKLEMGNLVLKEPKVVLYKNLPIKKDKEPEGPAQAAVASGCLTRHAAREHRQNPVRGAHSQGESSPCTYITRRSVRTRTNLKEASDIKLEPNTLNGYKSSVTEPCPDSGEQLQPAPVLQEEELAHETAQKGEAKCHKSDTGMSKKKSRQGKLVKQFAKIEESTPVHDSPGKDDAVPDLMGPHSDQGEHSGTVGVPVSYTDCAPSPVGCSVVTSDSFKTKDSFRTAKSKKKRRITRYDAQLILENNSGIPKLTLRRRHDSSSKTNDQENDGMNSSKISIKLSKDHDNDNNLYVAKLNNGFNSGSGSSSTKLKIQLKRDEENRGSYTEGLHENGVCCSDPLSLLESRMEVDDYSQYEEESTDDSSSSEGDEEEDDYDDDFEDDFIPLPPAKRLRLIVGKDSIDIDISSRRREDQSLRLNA

## Nc1ncnc2c1ncn2[C@@H]1O[C@H](C[C@@H](N)CC[C@H](N)C(=O)O)[C@@H](OCc2cnnn2CCCCCCNC(=O)OC2CCN(C(=O)c3ccccc3C3=c4cc5c6c(c4Oc4c3cc3c7c4CCCN7CCC3)CCC[N+]=6CCC5)CC2)[C@H]1O [Sinefungin Probe 1A]
[1]
  Kd: 6.1 ± 0.8 µM
[2]
  Kd: 580 ± 50 nM
[3]
  Kd: > 10 µM
